Laboratory results: PubChem BioAssay (NCI)
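Cultured in 96-well plates, cells were exposed to test compound for 48 hours across five concentrations. At the TGI there is no net growth.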

Tests used:
Test in all cases: growth of human tumour cells (NCI), 48 h
OVCAR-5 ovarian = tested on: OVCAR-5 ovarian
SW-620 colon = tested on: SW-620 colon
T-47D breast = tested on: T-47D breast
BT-549 breast = tested on: BT-549 breast
SK-MEL-5 melanoma = tested on: SK-MEL-5 melanoma
IGROV1 ovarian = tested on: IGROV1 ovarian
NCI-H226 lung = tested on: NCI-H226 lung
CAKI-1 renal = tested on: CAKI-1 renal
LOX IMVI melanoma = tested on: LOX IMVI melanoma
UO-31 renal = tested on: UO-31 renal
NCI-H23 lung = tested on: NCI-H23 lung
NCI-H522 lung = tested on: NCI-H522 lung
OVCAR-4 ovarian = tested on: OVCAR-4 ovarian
OVCAR-8 ovarian = tested on: OVCAR-8 ovarian
HCC-2998 colon = tested on: HCC-2998 colon
MCF7 breast = tested on: MCF7 breast
HCT-116 colon = tested on: HCT-116 colon
ACHN renal = tested on: ACHN renal
RXF 393 renal = tested on: RXF 393 renal
HOP-92 NSCLC = tested on: HOP-92 NSCLC
MDA-N = tested on: MDA-N
HS 578T breast = tested on: HS 578T breast
HL-60(TB) leukemia = tested on: HL-60(TB) leukemia
PC-3 prostate = tested on: PC-3 prostate
A549 NSCLC = tested on: A549 NSCLC
MALME-3M melanoma = tested on: MALME-3M melanoma
KM12 colon = tested on: KM12 colon
SF-539 CNS = tested on: SF-539 CNS
SK-MEL-2 melanoma = tested on: SK-MEL-2 melanoma
MDA-MB-435 = tested on: MDA-MB-435
UACC-62 melanoma = tested on: UACC-62 melanoma
SR leukemia = tested on: SR leukemia
CCRF-CEM leukemia = tested on: CCRF-CEM leukemia
HT29 colon = tested on: HT29 colon
SK-MEL-28 melanoma = tested on: SK-MEL-28 melanoma
786-0 renal = tested on: 786-0 renal
HCT-15 colon = tested on: HCT-15 colon
OVCAR-3 ovarian = tested on: OVCAR-3 ovarian
A498 renal = tested on: A498 renal
SF-295 CNS = tested on: SF-295 CNS
UACC-257 melanoma = tested on: UACC-257 melanoma
NCI-H460 lung = tested on: NCI-H460 lung
MDA-MB-231 breast = tested on: MDA-MB-231 breast
K-562 leukemia = tested on: K-562 leukemia
RPMI-8226 leukemia = tested on: RPMI-8226 leukemia
U251 CNS = tested on: U251 CNS
SNB-19 CNS = tested on: SNB-19 CNS
SN12C renal = tested on: SN12C renal
EKVX NSCLC = tested on: EKVX NSCLC
NCI/ADR-RES ovarian = tested on: NCI/ADR-RES ovarian
SF-268 CNS = tested on: SF-268 CNS
M14 melanoma = tested on: M14 melanoma
SNB-75 CNS = tested on: SNB-75 CNS
DU-145 prostate = tested on: DU-145 prostate
COLO 205 colon = tested on: COLO 205 colon
MOLT-4 leukemia = tested on: MOLT-4 leukemia
HOP-62 NSCLC = tested on: HOP-62 NSCLC

## O=c1cc(-c2ccccc2)c2ccc(O)c(CN(CCCl)CCCl)c2o1
OVCAR-5 ovarian
  TGI: 34.1 µM
SW-620 colon
  TGI: 69.7 µM
T-47D breast
  TGI: 55.6 µM
BT-549 breast
  TGI: 25 µM
SK-MEL-5 melanoma
  TGI: 31 µM
IGROV1 ovarian
  TGI: 33.8 µM
NCI-H226 lung
  TGI: 32.5 µM
CAKI-1 renal
  TGI: 29.1 µM
LOX IMVI melanoma
  TGI: 22.1 µM
UO-31 renal
  TGI: 36.9 µM
NCI-H23 lung
  TGI: 41.7 µM
NCI-H522 lung
  TGI: 35.7 µM
OVCAR-4 ovarian
  TGI: > 100 µM
OVCAR-8 ovarian
  TGI: 48.2 µM
HCC-2998 colon
  TGI: 25 µM
MCF7 breast
  TGI: > 100 µM
HCT-116 colon
  TGI: 43.1 µM
ACHN renal
  TGI: 64 µM
RXF 393 renal
  TGI: 30.1 µM
HOP-92 NSCLC
  TGI: 56.8 µM
MDA-N
  TGI: 35.1 µM
HS 578T breast
  TGI: 69.5 µM
HL-60(TB) leukemia
  TGI: 40.4 µM
PC-3 prostate
  TGI: 36.8 µM
A549 NSCLC
  TGI: 57.3 µM
MALME-3M melanoma
  TGI: 41.3 µM
KM12 colon
  TGI: 35.8 µM
SF-539 CNS
  TGI: 44.4 µM
SK-MEL-2 melanoma
  TGI: 59.8 µM
MDA-MB-435
  TGI: 39.9 µM
UACC-62 melanoma
  TGI: 51.6 µM
SR leukemia
  TGI: 33.1 µM
CCRF-CEM leukemia
  TGI: 20.7 µM
HT29 colon
  TGI: 26 µM
SK-MEL-28 melanoma
  TGI: 36.7 µM
786-0 renal
  TGI: 39.3 µM
HCT-15 colon
  TGI: 45.2 µM
OVCAR-3 ovarian
  TGI: 40.4 µM
A498 renal
  TGI: 41.6 µM
SF-295 CNS
  TGI: 29.7 µM
UACC-257 melanoma
  TGI: 33.9 µM
NCI-H460 lung
  TGI: > 100 µM
MDA-MB-231 breast
  TGI: 33.2 µM
K-562 leukemia
  TGI: 91.5 µM
RPMI-8226 leukemia
  TGI: 47.8 µM
U251 CNS
  TGI: 56.9 µM
SNB-19 CNS
  TGI: 47 µM
SN12C renal
  TGI: 38.5 µM
EKVX NSCLC
  TGI: 59.1 µM
NCI/ADR-RES ovarian
  TGI: > 100 µM
SF-268 CNS
  TGI: 44.5 µM
M14 melanoma
  TGI: 42 µM
SNB-75 CNS
  TGI: 38.9 µM
DU-145 prostate
  TGI: > 100 µM
COLO 205 colon
  TGI: 25.9 µM
MOLT-4 leukemia
  TGI: 47.8 µM
HOP-62 NSCLC
  TGI: 33.2 µM
